Measured values reported in US9433663B2, “Mobilization of hematopoietic stem cells” (Children's Hospital Medical Center, priority 2008, dated 2016).

Tests used:
[1] = test system: progenitor cells in spleen and liver; assay: CFU-C assays of spleen and liver after treatment; assay type: in vivo, mice; conditions: after CASIN injection
[2] = target: Cdc42 (Mus musculus, UniProt P60766); assay: Example 7 effector pull-down in LDBM and HCB cells, Cdc42; assay type: cell-based, murine LDBM and human HCB cells; set-up: endogenous in cells; host or cells: murine LDBM cells and human CD34+ HCB cells
Description: To exclude the inhibitory effect of CASIN on other Rac isoforms, Rho GTPases, and Ras, broader effector pull-down experiments are performed on these possible candidates with gradient doses of CASIN in LDBM and HCB cells as previously described. In addition, CASIN has been indicated as a noncovalent and reversible inhibitor in Xenopus egg extract. To confirm it, reversibility is monitored in this set of effector pull-down experiments. Four treatment groups are divided for both LDBM and HCB cells: (1) Serum starvation 20 h; (2) Serum starvation 20 h+growth factors stimulation; (3) Serum starvation 20 h+CASIN treatment (doses: 1, 2.5, 5, and 10 μM) 3 h+growth factor stimulation; (4) Serum starvation 20 h+CASIN treatment (doses: 1, 2.5, 5, and 10 μM) 3 h+wash the cells, and culture for another 3 h for recovery+growth factors stimulation. […] Bound proteins are analyzed by immunoblotting with respective antibodies (BD Biosciences). Furthermore, changes of downstream targets of Cdc42, Rac, and Rho under the four treatment groups are assessed. Phosphorylation status of PAK1, WASP (effectors of Cdc42), WAVE (effector of Rac), and ROCK (effector of Rho) are monitored by western blots using respective antibodies.

[3] = test system: murine HSCs; assay: Example 7 competitive repopulating assay of mobilized HSCs; assay type: in vivo, mice; conditions: competitive repopulating experiments, CASIN-mobilized C57Bl/6 donors
Excerpt: Although mobilization of HPC may be of use for short-term repopulation in a transplant setting, HSCs are required for long-term repopulation. To assess mobilization effect of CASIN on murine HSCs, a competitive repopulating assay is used. Basically, donor cells are harvested from peripheral blood of C57Bl/6 mice (CD45.2) after mobilization with CASIN or control medium. BM cells from nonirradiated B6.BoyJ (CD45.1) mice are served as competitor cells. Dilutions of donor blood cells from mobilized C57Bl/6 mice that contain long-term repopulating (LTR) cells compete with marrow cells of recipient B6.BoyJ mice at ratio of 3:1, 2:1, and 1:1 for engraftment in lethally-irradiated recipients. Donor chimerism is assessed using CD45 congenic markers by flow cytometry at 1, 2, 3, and 4 months posttransplantation. […] Donor chimerism again is assessed in the secondary mice based on the CD45 congenic markers.
The mobilization effect of CASIN on HSCs in comparison or combination with G-CSF is assessed under the following four mobilization groups: (1) Control medium mobilization group; (2) CASIN mobilization group; (3) G-CSF mobilization group (G-CSF: twice a day for 2 days); (4) CASIN plus G-CSF (twice a day for 2 days) mobilization group. […] The mobilization effects under different groups are analyzed based on the chimerism of donor-derived cells.

[4] = test system: Swiss 3T3 fibroblasts; assay: actin cytoskeleton rearrangement in Swiss 3T3 fibroblasts; assay type: cell-based, murine; conditions: serum-starved Swiss 3T3 cells, in the presence of CASIN
Excerpt: To investigate the Cdc42-dependent cytoskeleton rearrangement, Swiss 3T3 fibroblasts were used since it was abundantly elaborated in Swiss 3T3 fibroblats that bradykinin induces actin filopodia formation through activating Cdc42, whereas PDGF activates Rac1 and induces Rac-mediated membrane lamellipoidia, and LPA responsible for RhoA activation, eliciting RhoA-medicated formation of actin stress fibers and focal adhesion assembly (Ridley, A. J. et al. Cell 70, 401-410 (1992); Ridley, A. J. et al. Cell 70, 389-399 (1992); Kozma, R. et al. Mol Cell Biol 15, 1942-1952 (1995)).
[…] cells were seeded in Dulbecco's modified Eagle's medium (DMEM) supplemented with 10% calf serum on glass coverslips at a density of 10^5 cells per well in 8-well chambers. 24 hrs after cell seeding, cells were starved in serum-free DMEM for 24 h in the presence or absence of 5 μM or 10 μM CASIN for the last 2 hrs. cells then were stimulated with 5 ng/ml PDGF, 40 ng/ml LPA, or 100 ng/ml bradykinin, then fixed for immunofluorescence analysis. Immunostaining of F-actin with Rhodamine conjugated-phalloidin (Invitrogen) was carried out as described previously (Shutes, A., et al. J Biol Chem 282, 35666-35678 (2007)).

Sequence of Cdc42 (P60766 1-188 limits assumed): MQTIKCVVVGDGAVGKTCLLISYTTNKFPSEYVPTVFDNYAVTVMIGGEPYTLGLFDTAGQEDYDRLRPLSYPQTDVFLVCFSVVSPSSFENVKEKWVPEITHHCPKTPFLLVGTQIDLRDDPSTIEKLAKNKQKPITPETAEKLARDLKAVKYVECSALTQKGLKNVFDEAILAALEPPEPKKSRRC

SMILES: OCCNC1CCCc2c1[nH]c1ccc(-c3ccccc3)cc21 (stereo not shown) [CASIN]
- progenitor cells found in spleen and liver [1]: increased level
- activity of Cdc42 [2]: specifically inhibit the activity of Cdc42 in a dose-dependent manner
- recovery of Cdc42 activity after wash [2]: recovers 3 h after CASIN is washed away
- engraftment of donor derived cells in recipient B6.BoyJ mice [3]: significant engraftment of donor derived cells in a dilution-dependent pattern
- LPA-induced actin stress fiber formation [4]: still induced their respective changes in actin reorganization
- PDGF-induced lamellipodia formation [4]: still induced their respective changes in actin reorganization
- bradykinin-induced filopodia formation [4]: suppressed completely
